# Values quoted from earlier work as cited in patent US11040008B2, “Pharmaceutical compositions of meloxicam” (Slayback Pharma LLC, priority 2018, dated 2021).
# Legend:
# [1] = oral, fasted steady state conditions
smiles,measurement,setting,value
"Cc1cnc(NC(=O)C2=C(O)c3ccccc3S(=O)(=O)N2C)s1 [meloxicam, 4-hydroxy-2-methyl-N-(5-methyl-2-thiazolyl)-2H-1,2-benzothiazine-3-carboxamide-1,1-dioxide]",Time of second meloxicam concentration peak post-dose,[1],twelve to fourteen
same,Solubility in water,,practically insoluble in water
